Earlier results, collected in article PMC10772668 (Clinical and Translational Science, 2023).

Conditions: cited from earlier work

Structure (SMILES): CN1C(=O)[C@@H](NC(=O)c2nnc(Cc3ccccc3)[nH]2)COc2ccccc21 [GSK2982772]
- Safety and tolerability (clinical development): safe and well‐tolerated
- Tolerability and ALT abnormalities (healthy participants): well‐tolerated with no reports of ALT abnormalities
